Like-named read-outs stand apart in the source and are kept apart here.
Experiments:
SU-DHL6 = assay: Inhibition of tumor cell proliferation, CellTiter-Glo, SU-DHL6; type: cell-based; conditions: compound concentration 50 μM, 72 hours; for cell survival rate (% of control) at 50 µM: Homo sapiens, SU-DHL-6, read-out: Inhibitory activity against proliferation (cell survival rate) SU-DHL6
Summary of the method: (§1)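 Compound tested at 50 μM for 72 h, read by CellTiter-Glo. Survival rate = (treated−blank)/(control−blank) RLU ×100, binned as +++ ≤30%, ++ >30-≤60%, + 60-<90%. Seeding 2000-10000 cells/well depending on growth rate.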

RPMI-8226 = assay: Inhibition of tumor cell proliferation, CellTiter-Glo, RPMI-8226; type: cell-based; conditions: compound concentration 50 μM, 72 hours; for cell survival rate (% of control) at 50 µM: Homo sapiens, RPMI-8226, read-out: Inhibitory activity against proliferation (cell survival rate) RPMI-8226
Summary of the method: as §1

K562 = assay: Inhibition of tumor cell proliferation, CellTiter-Glo, K562; type: cell-based; conditions: compound concentration 50 μM, 72 hours; for cell survival rate (%) at 50 µM: Homo sapiens, K562, read-out: Inhibitory activity against proliferation (cell survival rate) K562
Summary of the method: as §1

A549 = assay: Inhibition of tumor cell proliferation, CellTiter-Glo, A549; type: cell-based; conditions: compound concentration 50 μM, 72 hours; for cell survival rate (% of control) at 50 µM: Homo sapiens, A549, read-out: Inhibitory activity against proliferation (cell survival rate) A549
Summary of the method: as §1

MDA-MB-453 = assay: Inhibition of tumor cell proliferation, CellTiter-Glo, MDA-MB-453; type: cell-based; conditions: compound concentration 50 μM, 72 hours; for cell survival rate (%) at 50 µM: Homo sapiens, MDA-MB-453, read-out: Inhibitory activity against proliferation (cell survival rate) MDA-MB-453
Summary of the method: as §1

BxPC-3 = assay: Inhibition of tumor cell proliferation, CellTiter-Glo, BxPC-3; type: cell-based; conditions: compound concentration 50 μM, 72 hours; for cell survival rate (%) at 50 µM: Homo sapiens, BXPC-3, read-out: Inhibitory activity against proliferation (cell survival rate) BxPC-3
Summary of the method: as §1

LC3B = LC3B (Homo sapiens (Human), UniProt Q9GZQ8); assay: Fluorescence polarization experiment targeting LC3B (GST-LC3B with FITC-labeled peptide)
[1] = GST-LC3B 180 nM, FITC-labeled peptide 18 nM, 25° C.

| IC50 (LC3B) | SMILES | Inhibitory activity against proliferation (cell survival rate) SU-DHL6 (SU-DHL6) | Inhibitory activity against proliferation (cell survival rate) RPMI-8226 (RPMI-8226) | Inhibitory activity against proliferation (cell survival rate) K562 (K562) | Inhibitory activity against proliferation (cell survival rate) A549 (A549) | Inhibitory activity against proliferation (cell survival rate) MDA-MB-453 (MDA-MB-453) | Inhibitory activity against proliferation (cell survival rate) BxPC-3 (BxPC-3) | IC50 (LC3B; [1]) | cell survival rate (% of control) at 50 µM (SU-DHL6) | cell survival rate (% of control) at 50 µM (RPMI-8226) | cell survival rate (%) at 50 µM (K562) | cell survival rate (% of control) at 50 µM (A549) | cell survival rate (%) at 50 µM (MDA-MB-453) | cell survival rate (%) at 50 µM (BxPC-3) |
| --- | --- | --- | --- | --- | --- | --- | --- | --- | --- | --- | --- | --- | --- | --- |
|  | O=C1CCC(N2Cc3c(NC=C4C(=O)CC(c5ccccc5N5CCOCC5)CC4=O)cccc3C2=O)C(=O)N1 (stereo not drawn) [Compound 155] | +++ (survival rate (%)≤30) | ++ (30<survival rate (%)≤60) | ++ (30<survival rate (%)≤60) | +++ (survival rate (%)≤30) | +++ (survival rate (%)≤30) | + (60≤survival rate (%)<90) | < 3 µM |  |  |  |  |  |  |
|  | O=C1CCC(N2Cc3c(NC(=O)CCCNC=C4C(=O)CC(c5ccccc5)CC4=O)cccc3C2=O)C(=O)N1 (stereo not drawn) [Compound 47] | +++ (survival rate (%)≤30) | + (60≤survival rate (%)<90) | + (60≤survival rate (%)<90) | + (60≤survival rate (%)<90) | +++ (survival rate (%)≤30) | ++ (30<survival rate (%)≤60) | 100 to 1000 µM |  |  |  |  |  |  |
|  | O=C1CCC(N2Cc3c(NC=C4C(=O)CC(c5ccc(F)cc5)CC4=O)cccc3C2=O)C(=O)N1 (stereo not drawn) [Compound 19] | + (60≤survival rate (%)<90) | ++ (30<survival rate (%)≤60) | ++ (30<survival rate (%)≤60) | + (60≤survival rate (%)<90) | ++ (30<survival rate (%)≤60) | ++ (30<survival rate (%)≤60) | < 3 µM |  |  |  |  |  |  |
|  | O=C1CCC(N2Cc3c(NC(=O)CCNC=C4C(=O)CC(c5ccccc5)CC4=O)cccc3C2=O)C(=O)N1 (stereo not drawn) [Compound 45] | + (60≤survival rate (%)<90) | + (60≤survival rate (%)<90) | + (60≤survival rate (%)<90) | + (60≤survival rate (%)<90) | + (60≤survival rate (%)<90) | + (60≤survival rate (%)<90) | 100 to 1000 µM |  |  |  |  |  |  |
|  | COc1cc(Br)c(C2CC(=O)C(=CNc3cccc4c3CN(C3CCC(=O)NC3=O)C4=O)C(=O)C2)cc1OC (stereo not drawn) [Compound 143] | +++ (survival rate (%)≤30) | ++ (30<survival rate (%)≤60) | ++ (30<survival rate (%)≤60) | +++ (survival rate (%)≤30) | +++ (survival rate (%)≤30) | + (60≤survival rate (%)<90) | < 3 µM |  |  |  |  |  |  |
|  | O=C1CCC(N2Cc3c(NC(=O)COCCNC=C4C(=O)CC(c5ccccc5)CC4=O)cccc3C2=O)C(=O)N1 (stereo not drawn) [Compound 48] | +++ (survival rate (%)≤30) | +++ (survival rate (%)≤30) | +++ (survival rate (%)≤30) | +++ (survival rate (%)≤30) | +++ (survival rate (%)≤30) | + (60≤survival rate (%)<90) | 100 to 1000 µM |  |  |  |  |  |  |
| < 3 µM | O=C1CCC(N2Cc3c(NC(=O)CN4CCN(CCNC=C5C(=O)CC(c6ccccc6Br)CC5=O)CC4)cccc3C2=O)C(=O)N1 (stereo not drawn) [Compound 157] |  |  |  |  |  |  |  | ≤ 30% | ≤ 30% | ≤ 30% | ≤ 30% | 30 to 60% | 30 to 60% |
|  | CC(C)[C@H](NC(=O)CN1CCN(CCNC=C2C(=O)CC(c3ccccc3)CC2=O)CC1)C(=O)N[C@@H](CCCNC(N)=O)C(=O)Nc1ccc(COC(=O)Nc2cccc3c2CN(C2CCC(=O)NC2=O)C3=O)cc1 (stereo partly drawn) [Compound 90] | +++ (survival rate (%)≤30) | ++ (30<survival rate (%)≤60) | +++ (survival rate (%)≤30) | ++ (30<survival rate (%)≤60) | ++ (30<survival rate (%)≤60) | ++ (30<survival rate (%)≤60) | 15 to 100 µM |  |  |  |  |  |  |
|  | O=C1CCC(N2Cc3c(NC(=O)c4ccc(NC=C5C(=O)CC(c6ccccc6)CC5=O)cc4)cccc3C2=O)C(=O)N1 (stereo not drawn) [Compound 50] | +++ (survival rate (%)≤30) | ++ (30<survival rate (%)≤60) | + (60≤survival rate (%)<90) | + (60≤survival rate (%)<90) | + (60≤survival rate (%)<90) | + (60≤survival rate (%)<90) | 15 to 100 µM |  |  |  |  |  |  |
| 100 to 1000 µM | O=C1CCC(N2Cc3c(NC=C4C(=O)CCCC4=O)cccc3C2=O)C(=O)N1 (stereo not drawn) [Compound 132] |  |  |  |  |  |  |  | ≤ 30% | ≤ 30% | 30 to 60% | 60 to 90% | 60 to 90% | 30 to 60% |
|  | O=C1CCC(N2C(=O)c3cccc(NC=C4C(=O)CC(c5cccc6[nH]ccc56)CC4=O)c3C2=O)C(=O)N1 (stereo not drawn) [Compound 5] | + (60≤survival rate (%)<90) | + (60≤survival rate (%)<90) | + (60≤survival rate (%)<90) | +++ (survival rate (%)≤30) | +++ (survival rate (%)≤30) | + (60≤survival rate (%)<90) | < 3 µM |  |  |  |  |  |  |
|  | O=C1CCC(N2Cc3c(NC=C4C(=O)CC(c5cc(C(F)(F)F)ccc5F)CC4=O)cccc3C2=O)C(=O)N1 (stereo not drawn) [Compound 140] | +++ (survival rate (%)≤30) | +++ (survival rate (%)≤30) | +++ (survival rate (%)≤30) | +++ (survival rate (%)≤30) | ++ (30<survival rate (%)≤60) | ++ (30<survival rate (%)≤60) | < 3 µM |  |  |  |  |  |  |
|  | O=C1CCC(N2Cc3c(NC=C4C(=O)CC(c5c(Cl)ccc6[nH]ccc56)CC4=O)cccc3C2=O)C(=O)N1 (stereo not drawn) [Compound 152] | +++ (survival rate (%)≤30) | +++ (survival rate (%)≤30) | +++ (survival rate (%)≤30) | +++ (survival rate (%)≤30) | ++ (30<survival rate (%)≤60) | ++ (30<survival rate (%)≤60) | < 3 µM |  |  |  |  |  |  |
|  | COc1ccc(C2CC(=O)C(=CNc3cccc4c3CN(C3CCC(=O)NC3=O)C4=O)C(=O)C2)c(F)c1F (stereo not drawn) [Compound 153] | +++ (survival rate (%)≤30) | ++ (30<survival rate (%)≤60) | ++ (30<survival rate (%)≤60) | +++ (survival rate (%)≤30) | +++ (survival rate (%)≤30) | + (60≤survival rate (%)<90) | < 3 µM |  |  |  |  |  |  |
|  | O=C1CCC(N2Cc3c(NC=C4C(=O)CC(c5c(F)c(Cl)cc(Cl)c5Cl)CC4=O)cccc3C2=O)C(=O)N1 (stereo not drawn) [Compound 154] | +++ (survival rate (%)≤30) | +++ (survival rate (%)≤30) | +++ (survival rate (%)≤30) | + (60≤survival rate (%)<90) | +++ (survival rate (%)≤30) | + (60≤survival rate (%)<90) | < 3 µM |  |  |  |  |  |  |

Source: patent US11021457B2, “Class of isoindolone-imide ring-1,3-dione-2-ene compounds, composition and use thereof” (WIGEN BIOMEDICINE TECHNOLOGY (SHANGHAI) CO., LTD., priority 2017, dated 2021)
